Measurements from patent publication US20060141047A1, “Methods and compositions for delivery of catecholic butanes for treatment of obesity” (priority 2003, published 2006).
Where “and” joins values, the source holds several entries; their conditions need not be identical. Identical values can stand only once. Like-named read-outs stand apart in the source and are kept apart here.

What was measured:
[1] = Fresh weights of isolated organs after 20 week feeding with fat-rich diet containing M4N; format: in vivo, mice
Protocol: While no definite conclusions can be made regarding most organs due to the small size of the populations tested, a decrease in adipocyte (fat cells) weight was nevertheless significant (0.84 g vs. 0.196 g) following a 20 week feeding with a fat-rich diet containing M4N. In particular, fat tissues from two control mice (C24 and C25) which were fed a fat-rich diet without M4N were isolated and incubated with CREM solvent or with CREM solvent plus M4N for a total period of 6 days (first extract 72 hours and second extract for an additional 72 hours). The fat cell weights were measured at 0 time, the third day and the sixth day following incubation in CREM solvent and without M4N.

[2] = format: in vivo; details: for % Weight Change / Weight on End Date: M4N-fed mice
Protocol: Tissue Distribution and Toxicity Analysis Following Short-Term and Long-Term Oral Feeding. For short-term feeding experiments, 30 mg of M4N dissolved in 300 μL castor oil was orally administered to each of 6 mice. At 2 h, 4 h, and 8 h post-administration time points, 2 mice were sacrificed, the organs and blood were collected, and the M4N extracted and quantitated as described below. […] Food balls weighed 9 g and contained 242 mg M4N each. Two mice, one male and one female, were reserved for long-term drug retention studies; and fourteen mice, both male and female, were used for long-term drug toxicity studies. At the end of feeding, mice were sacrificed, the organs and blood were collected, and the M4N extracted and quantitated as described below.
In particular, weight was measured on a bi-weekly or monthly basis. […] However, to assess long-term drug toxicity, only the mice that were treated for more than 20 weeks were compared. A total of 14 mice were treated for more than 20 weeks, 6 M4N-treated and 8 control mice. Since females generally eat less than males and have lower body weight, comparisons were drawn between mice of the same sex. […] The fact that the control mice, both male and female, consumed much more food than the M4N-treated mice evidences a greater preference for food in the control subjects.

[3] = Maximum amount of M4N dissolved in Cremaphor EL/ethanol/saline solvent; format: physicochemical; details: 6% Cremaphor EL, 6% ethanol, 88% saline
Protocol: To assess the toxicity of prolonged intraperitoneal systemic treatment with M4N, and to determine a safe dosage for the following xenograft experiments, the following toxicity test was performed.

[4] = Toxicokinetic (TK) analysis of M4N serum concentration; format: in vivo, Beagle Dogs; details: dogs, CET or DMSO formulations, minimal toxicity
Protocol: Blood samples from the CET group animals were collected via the jugular vein on Study Day (SD) 1, SD 3, SD 6, and SD 8 at the following time points: predose, 0.25, 0.5, 1, 2, 4, 8, and 16 hours following the completion of the approximate 4-hour infusion.
Blood samples from the DMSO group animals were collected via the cephalic vein on SD 1, SD 3, SD 6, and SD 8 at the following time points: predose, 0.25, 0.5, 1, 2, 4, 8, and 16 hours following the final injection dose of M4N-DMSO.
Blood samples collected from both groups of animals were processed for plasma and serum for TK analysis.
The plasma and serum samples were sent to MedTox Laboratories, the Sponsor's designated laboratory for TK analysis. TK analysis of M4N plasma and serum concentration-time data was performed using a validated method (M200406) by MedTox Laboratories and analyzed by noncompartmental methods to obtain estimates of toxicokinetic parameters (where data allow), but not necessarily limited to, Cmax, Tmax and AUC.

With `COc1ccc(C[C@@H](C)[C@@H](C)Cc2ccc(OC)c(OC)c2)cc1OC` [M4N, meso-1,4-bis(3,4-dimethoxyphenyl)-2,3-dimethylbutane] the “Fresh organ weight, Bladder” value ([1]; Female, 20 week feeding) was 0.034 g, the “Fresh organ weight, Caecum” value ([1]; Female, 20 week feeding) was 0.162 g and the “Fresh organ weight, Colon” value ([1]; Female, 20 week feeding) was 0.195 g. The “Fresh organ weight, Heart” value ([1]; Female, 20 week feeding) was 0.107 g, the “Fresh organ weight, Kidney” value ([1]; Female, 20 week feeding) was 0.3 g and the “Fresh organ weight, Liver” value ([1]; Female, 20 week feeding) was 1.153 g. For the same compound, the “Fresh organ weight, Lung” value ([1]; Female, 20 week feeding) was 0.205 g, the “Fresh organ weight, Pancreas” value ([1]; Female, 20 week feeding) was 0.18 g and the “Fresh organ weight, Small Intestine” value ([1]; Female, 20 week feeding) was 1.193 g. The “Fresh organ weight, Spleen” value ([1]; Female, 20 week feeding) was 0.08 g, the “Fresh organ weight, Stomach” value ([1]; Female, 20 week feeding) was 0.243 g and the “Fresh weight, Fat” value ([1]; Female, 20 week feeding) was 0.509 g. The “Fresh organ weight, Bladder” value ([1]; Male, 20 week feeding) was 0.026 g, the “Fresh organ weight, Caecum” value ([1]; Male, 20 week feeding) was 0.133 g and the “Fresh organ weight, Colon” value ([1]; Male, 20 week feeding) was 0.186 g. For the same compound, the “Fresh organ weight, Heart” value ([1]; Male, 20 week feeding) was 0.319 g, the “Fresh organ weight, Kidney” value ([1]; Male, 20 week feeding) was 0.35 g and the “Fresh organ weight, Liver” value ([1]; Male, 20 week feeding) was 1.44 g. The “Fresh organ weight, Lung” value ([1]; Male, 20 week feeding) was 0.156 g, the “Fresh organ weight, Pancreas” value ([1]; Male, 20 week feeding) was 0.121 g and the “Fresh organ weight, Small Intestine” value ([1]; Male, 20 week feeding) was 1.44 g. For the same compound, the “Fresh organ weight, Small Vesicles” value ([1]; Male, 20 week feeding) was 0.154 g, the “Fresh organ weight, Spleen” value ([1]; Male, 20 week feeding) was 0.065 g and the “Fresh organ weight, Stomach” value ([1]; Male, 20 week feeding) was 0.177 g. The “Fresh organ weight, Testes” value ([1]; Male, 20 week feeding) was 0.189 g, the “Fresh weight, Fat” value ([1]; Male, 20 week feeding with fat-rich diet) was 0.196 g and the “Average % Weight Change” value ([2]; Female mice treated 20 weeks) was 24.9%. For the same compound, the “Average Amount of Food Consumed” value ([2]; Female mice treated 20 weeks) was 258.8 g, the “% Weight Change” value ([2]; length of treatment 8 weeks) was 20.5% and 18.1% and the “Weight on End Date” value ([2]; length of treatment 8 weeks) was 26.4 g and 24.1 g. For the same compound, the “Weight on End Date” value ([2]; length of treatment 9 weeks) was 18.9 g and 24.2 g and 19.7 g, the “% Weight Change” value ([2]; length of treatment 11 weeks) was 11.8% and the “Weight on End Date” value ([2]; length of treatment 11 weeks) was 20.8 g. For the same compound, the “Average % Weight Change” value ([2]; Male mice treated 20 weeks) was 21%, the “Average Amount of Food Consumed” value ([2]; Male mice treated 20 weeks) was 225 g and 225.0 g and the Effect on appetite ([2]; both male and female mice, long-term oral feeding) was “reduced the appetite”. The “Effect on body weight” value ([2]; mice, systemic or oral administration) was “caused weight loss”, the “Toxic effects on female mice” value ([2]; mouse, in vivo, po) was “did not have toxic effects” and the “Maximum amount of M4N which may be dissolved in the solvent” value [3] was 20 mg/mL. The “Blood levels of M4N achieved” value [4] was “up to 14,000 ng/ml”.
